The subject of data set [1] is IFNα-stimulated phosphorylated STAT1. In words: Assay of IFNα-stimulated phosphorylated STAT1 in hPBMC (flow cytometry, CD4+ T cells). Format: cell-based, Human. The conditions noted are these: IFN-α 1000 U/ml, pSTAT1 in CD4+ T cells. The method, then:
Human peripheral blood mononuclear cells (hPBMC) were plated at a cell density of 1×10^5 cells/well and placed in a 37° C. incubator for 90 minutes. Different concentrations of compounds were then added to the cells, wherein the concentration of each compound started from […] and was serially diluted 5-fold to a total of 8 concentrations. Compounds and cells were incubated at 37° C. for 30 minutes. IFN-α (1000 U/ml) was used to stimulate hPBMC, and then flow cytometry was used to detect the level of phosphorylated STAT1 in CD4+ T cells to evaluate the inhibitory activity of compounds on the IFN-α pathway.

Data set [2] can be described thus: Pharmacokinetics of the compound in Balb/c mice. Format: in vivo. The conditions noted are these: mouse, plasma, male Balb/c mice, fasted; for AUC: read-out: AUC (exposure). On the procedure: • Purpose of assay: To assay the pharmacokinetics of the compound in Balb/c mice • Assay materials: Male Balb/c mice, fasted
The pharmacokinetic profiles of compound 1 in rodents after intravenous injection and oral administration were assayed using standard protocols.
Acclimatization/quarantine of Balb/c mice was performed for at least 3 days after arrival at the facility. Upon completion of the acclimatization/quarantine, a veterinarian or designee examined the health status of the Balb/c mice to evaluate whether the animals were suitable for the assay study. All Balb/c mice were fasted overnight before administration and resumed feeding 4 hours after administration. In the assay, the candidate compound was formulated into a homogeneous solution and given to Balb/c mice via a single intravenous injection and oral administration. The intravenous vehicle was a clear solution of 80% polyethylene glycol 400/20% water and the oral vehicle was a homogeneous suspension of ethanol/vitamin E polyethylene glycol succinate/polyethylene glycol 300 (5/5/90). The animals were weighed before administration and the administered volume was calculated based on body weight. Whole blood samples were collected by means of jugular vein puncture within 24 hours. All blood samples were immediately transferred to labeled commercial centrifuge tubes containing K2-EDTA. After blood samples were collected, the blood samples were centrifuged at 3200 g for 10 minutes at 4° C. The supernatant plasma was aspirated, quickly placed on dry ice, and then stored at −60° C. or lower for LC-MS/MS analysis. The data of blood drug concentration-time were analyzed using the WinNonlin software package (Version 6.3 and above) using a non-compartmental model. Pharmacokinetic parameters were calculated, including (if data permitted), but not limited to, peak concentration (Cmax), time to peak (Tmax), elimination half-life (T 1/2), area under plasma concentration-time curve (AUC), mean retention time (MRT), bioavailability, etc.

The target of data set [3] is TYK2 protein (His-TVMV-TYK2 JH2 (575-869)) (Homo sapiens (Human), UniProt P29597). In words: Tyk2 JH2 enzymatic activity assay (HTRF, fluorescein-labeled kinase tracer). Format: binding. The settings on record: 90 minutes at room temperature. The method, then:
The assay system was incubated at room temperature for 90 minutes. The resulting HTRF (homogeneous time-resolved fluorescence) signal, i.e., the ratio of the fluorescence intensity of the fluorescein acceptor (520 nm) and the terbium donor (495 nm) at the emission wavelength, was then measured on an Envision plate reader, and based on this, the IC50 value was calculated.

Structures can show the parent of a compound that is named as a salt. Where two headings read alike, the source gives them in different places.

TYK2 protein (His-TVMV-TYK2 JH2 (575-869)), sequence (P29597 575-869, species assumed): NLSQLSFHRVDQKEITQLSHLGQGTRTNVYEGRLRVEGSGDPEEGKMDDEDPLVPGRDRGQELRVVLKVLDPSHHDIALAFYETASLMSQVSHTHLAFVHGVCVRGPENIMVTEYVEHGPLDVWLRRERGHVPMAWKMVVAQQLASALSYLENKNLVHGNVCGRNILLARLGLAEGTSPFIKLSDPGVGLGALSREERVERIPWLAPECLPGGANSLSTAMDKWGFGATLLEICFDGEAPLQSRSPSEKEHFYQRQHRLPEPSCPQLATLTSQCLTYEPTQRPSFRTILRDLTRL

As for `[2H]C([2H])([2H])CC(=O)c1cnc(NC(=O)C2CC2)cc1Nc1cccc(-c2cnc(N=S(C)(C)=O)cn2)c1OC` [Compound 1], the midpoint of inhibition in data set [1], the IC50, lay at 1.1 nM. In addition, the AUC in data set [2] (IV (1 mg/kg)) came to 9.38 µM·h; in data set [2] (PO (10 mg/kg)), 47.2 µM·h. The clearance in data set [2] (IV (1 mg/kg), read-out: Cl (clearance rate)) came to 0.203 L/h/kg. Also, the half-life in data set [2] (IV (1 mg/kg), read-out: T1/2 (half-life) (converted)) is 1.61 h. Also, the Vd in data set [2] (IV (1 mg/kg), read-out: Vd (volume of distribution)) came out at 0.45 L/kg. In data set [2] (PO (10 mg/kg), read-out: Cmax (maximum concentration)), the Cmax worked out at 13.4 µM. Besides, the bioavailability in data set [2] (PO (10 mg/kg), read-out: F (bioavailability)) is 51.4%. The Tmax in data set [2] (PO (10 mg/kg), read-out: Tmax (time to peak concentration)) is 0.75 h. Take `[2H]C([2H])([2H])NC(=O)c1nnc(NC(=O)C2CC2)cc1Nc1cccc(-c2cnc(N=S(C)(C)=O)cn2)c1OC` [Compound 2]: the IC50 came out at 0.06 nM in data set [3] and 0.2 nM in data set [1] (Homo sapiens, CD4+ T).

Turning to `[2H]C([2H])([2H])NC(=O)c1cnc(NC(=O)C2CC2)cc1Nc1cccc(-c2cnc(N=S(C)(C)=O)cn2)c1OC` [Compound 3], the IC50 in data set [3] was 0.03 nM; in data set [1] (Homo sapiens, CD4+ T), 2.1 nM. For `CCC(=O)c1cnc(NC(=O)C2CC2)cc1Nc1cccc(-c2cnc(N=S(C)(C)=O)cn2)c1OC` [Compound 4], the IC50 in data set [3] was determined as 0.07 nM; in data set [1] (Homo sapiens, CD4+ T), 0.6 nM. `[2H]C([2H])([2H])CC(=O)c1cnc(NC(=O)C2CC2)cc1Nc1cccc(-c2cnc(N=S3(=O)CCOCC3)cn2)c1OC` [Compound 5]: in data set [3], half-maximal inhibition (IC50) was put at 0.07 nM. With `[2H]C([2H])([2H])CC(=O)c1cnc(NC(=O)C2CC2)cc1Nc1cccc(-c2cnc(N=S3(=O)CCC3)cn2)c1OC` [Compound 6], the IC50 in data set [3] was 0.18 nM. Regarding `[2H]C([2H])([2H])CC(=O)c1cnc(NC(=O)C2CC2)cc1Nc1cccc(-c2cnc(N=S3(=O)CCCC3)cn2)c1OC` [Compound 7], inhibition in data set [3] was half-maximal at 0.09 nM (IC50). Turning to `[2H]C([2H])([2H])CC(=O)c1cnc(NC(=O)C2CC2)cc1Nc1cccc(-c2cnc(N=S3(=O)CCN(C)CC3)cn2)c1OC` [Compound 8], the IC50 in data set [3] turned out to be 0.15 nM; in data set [1] (Homo sapiens, CD4+ T) it was 0.4 nM. In the case of `[2H]C([2H])([2H])CC(=O)c1cnc(NC(=O)C2CC2)cc1Nc1cccc(-c2cnc(N=S(C)(C)=O)cn2)c1OC` [Compound 9], the IC50 came to 0.07 nM in data set [3] and 0.5 nM in data set [1].

Compound `[2H]C([2H])([2H])CC(=O)c1cnc(Nc2ccccn2)cc1Nc1cccc(-c2cnc(N=S(C)(C)=O)cn2)c1OC` [Compound 10] displayed a concentration for half-maximal inhibition (IC50) in data set [3] of 0.06 nM. On to `[2H]C([2H])([2H])CC(=O)c1cnc(Nc2ccc(F)cn2)cc1Nc1cccc(-c2cnc(N=S(C)(C)=O)cn2)c1OC` [Compound 11], for which, in data set [3], the IC50 is 0.11 nM.

Compound `[2H]C([2H])([2H])CC(=O)c1cnc(Nc2cccc(C#N)n2)cc1Nc1cccc(-c2cnc(N=S(C)(C)=O)cn2)c1OC` [Compound 12] came in with an IC50 in data set [3] of 0.05 nM. As to `[2H]C([2H])([2H])CC(=O)c1cnc(Nc2cncc(C)n2)cc1Nc1cccc(-c2cnc(N=S(C)(C)=O)cn2)c1OC` [Compound 13], the IC50 in data set [3] was 0.12 nM. Take `[2H]C([2H])([2H])CC(=O)c1cnc(NC(=O)C2CCC2)cc1Nc1cccc(-c2cnc(N=S(C)(C)=O)cn2)c1OC` [Compound 14]: the midpoint of inhibition in data set [3], the IC50, lay at 0.25 nM. On the same count and under the same terms, the same measure for `[2H]C([2H])([2H])CC(=O)c1cnc(NC(=O)C2CC2)cc1Nc1cc(F)cc(-c2cnc(N=S(C)(C)=O)cn2)c1OC` [Compound 15]: 0.08 nM; for `[2H]C([2H])([2H])CC(=O)c1cnc(NC(=O)C2CC2)cc1Nc1nccc(-c2cnc(N=S(C)(C)=O)cn2)c1OC` [Compound 16]: 0.08 nM; for `COCC(=O)c1cnc(NC(=O)C2CC2)cc1Nc1cccc(-c2cnc(N=S(C)(C)=O)cn2)c1OC` [Compound 17]: 0.29 nM. In data set [3], `COc1c(Nc2cc(NC(=O)C3CC3)ncc2C(C)=O)cccc1-c1cnc(N=S(C)(C)=O)cn1` [Compound 18] registered a half-inhibitory concentration (IC50) of 0.09 nM.

In turn, `COc1c(Nc2cc(NC(=O)C3CC3)ncc2C(=O)C2CC2)cccc1-c1cnc(N=S(C)(C)=O)cn1` [Compound 19] registered an IC50 in data set [3] of 0.12 nM. In turn, `[2H]C([2H])([2H])CC(=O)c1cnc(NC(=O)N2CCC2)cc1Nc1cccc(-c2cnc(N=S(C)(C)=O)cn2)c1OC` [Compound 20] had an IC50 in data set [3] of 0.19 nM.

`[2H]C([2H])([2H])CC(=O)c1cnc(NC(=O)C2CC2)cc1Nc1cc(C)cc(-c2cnc(N=S(C)(C)=O)cn2)c1OC` [Compound 21] yielded an IC50 in data set [3] of 0.13 nM. In the case of `[2H]C([2H])([2H])CC(=O)c1cnc(NC(=O)C2CC2)cc1Nc1cc(OC)cc(-c2cnc(N=S(C)(C)=O)cn2)c1OC` [Compound 22 hydrochloride], the IC50 in data set [3] came to 0.14 nM. With `[2H]C([2H])([2H])CC(=O)c1cnc(NC(=O)NC2CC2)cc1Nc1cccc(-c2cnc(N=S(C)(C)=O)cn2)c1OC` [Compound 23], in data set [3], the IC50 stood at 0.13 nM. On the same count and under the same terms, the figure for `[2H]C([2H])([2H])CC(=O)c1cnc(NC(=O)C2CC2)cc1Nc1cccc(-c2cnc(N=S(=O)(CC)CC)cn2)c1OC` [Compound 27] is 0.09 nM; for `[2H]C([2H])([2H])CC(=O)c1cnc(NC(=O)c2cn[nH]c2)cc1Nc1cccc(-c2cnc(N=S(C)(C)=O)cn2)c1OC` [Compound 28] it is 0.17 nM; for `[2H]C([2H])([2H])CC(=O)c1cnc(Nc2cc3cc[nH]c3cn2)cc1Nc1cccc(-c2cnc(N=S(C)(C)=O)cn2)c1OC` [Compound 29] it is 0.11 nM. In the case of `[2H]C([2H])([2H])CC(=O)c1cnc(NC(=O)C23CC(C2)C3)cc1Nc1cccc(-c2cnc(N=S(C)(C)=O)cn2)c1OC` [Compound 30], the IC50 in data set [3] is 0.56 nM.

In data set [3], `[2H]C([2H])([2H])CC(=O)c1cnc(NC(=O)C2C3COCC32)cc1Nc1cccc(-c2cnc(N=S(C)(C)=O)cn2)c1OC` (centres unmarked) [Compound 31] displayed an IC50 of 0.34 nM. Same read-out and setting: the same measure for `[2H]C([2H])([2H])CC(=O)c1cnc(NC(=O)C2CC3(CCC3)C2)cc1Nc1cccc(-c2cnc(N=S(C)(C)=O)cn2)c1OC` [Compound 32]: 0.31 nM; for `[2H]C([2H])([2H])CC(=O)c1cnc(NC(=O)C2CC3CCC2C3)cc1Nc1cccc(-c2cnc(N=S(C)(C)=O)cn2)c1OC` (centres unmarked) [Compound 33]: 0.3 nM. Compound `[2H]C([2H])([2H])CC(=O)c1cnc(Nc2ccn(C)c(=O)c2)cc1Nc1cccc(-c2cnc(N=S(C)(C)=O)cn2)c1OC` [Compound 35] came in with an IC50 in data set [3] of 0.76 nM.

The record behind these values is patent publication US20240376093A1, “SULFOXIMINE COMPOUND AND USE THEREOF” (MEDSHINE DISCOVERY INC., priority 2021, published 2024).
